Test results published in PubChem BioAssay (NCI).
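Grown in 96-well plates, cells were treated for 48 hours with each compound at five concentrations. Insufficient inhibition: endpoint recorded as highest concentration tested. At the GI50, growth is halved. The concentration for full growth arrest is given as TGI.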

Experiments:
Assay in all cases: NCI-60 cell line screen, 48 h
HCT-15 colon = system: HCT-15 colon
SK-OV-3 ovarian = system: SK-OV-3 ovarian
HS 578T breast = system: HS 578T breast
UACC-257 melanoma = system: UACC-257 melanoma
MDA-MB-231 breast = system: MDA-MB-231 breast
U251 CNS = system: U251 CNS
OVCAR-8 ovarian = system: OVCAR-8 ovarian
A498 renal = system: A498 renal
TK-10 renal = system: TK-10 renal
ACHN renal = system: ACHN renal
CAKI-1 renal = system: CAKI-1 renal
HT29 colon = system: HT29 colon
SNB-75 CNS = system: SNB-75 CNS
KM12 colon = system: KM12 colon
MDA-MB-435 = system: MDA-MB-435
HCC-2998 colon = system: HCC-2998 colon
PC-3 prostate = system: PC-3 prostate
MOLT-4 leukemia = system: MOLT-4 leukemia
SF-295 CNS = system: SF-295 CNS
SNB-19 CNS = system: SNB-19 CNS
DU-145 prostate = system: DU-145 prostate
HCT-116 colon = system: HCT-116 colon
NCI-H460 lung = system: NCI-H460 lung
HOP-92 NSCLC = system: HOP-92 NSCLC
OVCAR-5 ovarian = system: OVCAR-5 ovarian
SK-MEL-28 melanoma = system: SK-MEL-28 melanoma
T-47D breast = system: T-47D breast
NCI-H23 lung = system: NCI-H23 lung
SF-268 CNS = system: SF-268 CNS
RPMI-8226 leukemia = system: RPMI-8226 leukemia
K-562 leukemia = system: K-562 leukemia
COLO 205 colon = system: COLO 205 colon
M14 melanoma = system: M14 melanoma
NCI-H226 lung = system: NCI-H226 lung
A549 NSCLC = system: A549 NSCLC
CCRF-CEM leukemia = system: CCRF-CEM leukemia
BT-549 breast = system: BT-549 breast
RXF 393 renal = system: RXF 393 renal
HL-60(TB) leukemia = system: HL-60(TB) leukemia
HOP-62 NSCLC = system: HOP-62 NSCLC
EKVX NSCLC = system: EKVX NSCLC
SN12C renal = system: SN12C renal
UACC-62 melanoma = system: UACC-62 melanoma
SK-MEL-2 melanoma = system: SK-MEL-2 melanoma
OVCAR-4 ovarian = system: OVCAR-4 ovarian
SR leukemia = system: SR leukemia
OVCAR-3 ovarian = system: OVCAR-3 ovarian
SK-MEL-5 melanoma = system: SK-MEL-5 melanoma
NCI/ADR-RES ovarian = system: NCI/ADR-RES ovarian
LOX IMVI melanoma = system: LOX IMVI melanoma
IGROV1 ovarian = system: IGROV1 ovarian
MCF7 breast = system: MCF7 breast
786-0 renal = system: 786-0 renal
MALME-3M melanoma = system: MALME-3M melanoma
SW-620 colon = system: SW-620 colon
SF-539 CNS = system: SF-539 CNS

Compound `CC(C)(C)c1ccc(C(=O)Nc2sc3c(c2C(N)=O)CC/C(=N\O)C3)cc1` has a GI50 (HCT-15 colon) of 1.48 µM, a TGI (HCT-15 colon) of 14.5 µM and a GI50 (SK-OV-3 ovarian) of 3.53 µM. It also gave a TGI (SK-OV-3 ovarian) of 19.2 µM, a GI50 (HS 578T breast) of 4.66 µM and a TGI (HS 578T breast) of 58 µM. The GI50 (UACC-257 melanoma) was 3.27 µM, the TGI (UACC-257 melanoma) was 11.7 µM and the GI50 (MDA-MB-231 breast) was 3.04 µM. The TGI (MDA-MB-231 breast) was 9.11 µM, the GI50 (U251 CNS) was 3.66 µM and the TGI (U251 CNS) was 28.2 µM. It also gave a GI50 (OVCAR-8 ovarian) of 3.88 µM, a TGI (OVCAR-8 ovarian) of 20.2 µM and a GI50 (A498 renal) of 2.09 µM. For the same compound, the TGI (A498 renal) was 8.85 µM, the GI50 (TK-10 renal) was 5.81 µM and the TGI (TK-10 renal) was 53.9 µM. It also gave a GI50 (ACHN renal) of 1.55 µM, a TGI (ACHN renal) of 9.21 µM and a GI50 (CAKI-1 renal) of 0.756 µM. The TGI (CAKI-1 renal) was 10.6 µM, the GI50 (HT29 colon) was 2.68 µM and the TGI (HT29 colon) was 19.9 µM. It also gave a GI50 (SNB-75 CNS) of 3.65 µM, a TGI (SNB-75 CNS) of 14.9 µM and a GI50 (KM12 colon) of 2.85 µM. The TGI (KM12 colon) was 13.5 µM, the GI50 (MDA-MB-435) was 3.01 µM and the TGI (MDA-MB-435) was 10.2 µM. For the same compound, the GI50 (HCC-2998 colon) was 4.79 µM, the TGI (HCC-2998 colon) was 22.3 µM and the GI50 (PC-3 prostate) was 1.31 µM. For the same compound, the TGI (PC-3 prostate) was 18.6 µM, the GI50 (MOLT-4 leukemia) was 2.09 µM and the TGI (MOLT-4 leukemia) was 10.6 µM. For the same compound, the GI50 (SF-295 CNS) was 3.96 µM, the TGI (SF-295 CNS) was 14.8 µM and the GI50 (SNB-19 CNS) was 4.18 µM. For the same compound, the TGI (SNB-19 CNS) was 18.4 µM, the GI50 (DU-145 prostate) was 4.21 µM and the TGI (DU-145 prostate) was 16.7 µM. For the same compound, the GI50 (HCT-116 colon) was 1.5 µM, the TGI (HCT-116 colon) was 12.6 µM and the GI50 (NCI-H460 lung) was 3.06 µM. For the same compound, the TGI (NCI-H460 lung) was 10.1 µM, the GI50 (HOP-92 NSCLC) was 2.43 µM and the TGI (HOP-92 NSCLC) was 6.86 µM. It also gave a GI50 (OVCAR-5 ovarian) of 3.43 µM, a TGI (OVCAR-5 ovarian) of 14.3 µM and a GI50 (SK-MEL-28 melanoma) of 3.47 µM. For the same compound, the TGI (SK-MEL-28 melanoma) was 12.4 µM, the GI50 (T-47D breast) was 0.739 µM and the TGI (T-47D breast) was 8.06 µM. For the same compound, the GI50 (NCI-H23 lung) was 2.51 µM, the TGI (NCI-H23 lung) was 13.4 µM and the GI50 (SF-268 CNS) was 5.38 µM. For the same compound, the TGI (SF-268 CNS) was 24.7 µM, the GI50 (RPMI-8226 leukemia) was 1.04 µM and the TGI (RPMI-8226 leukemia) was 4.92 µM. It also gave a GI50 (K-562 leukemia) of 0.597 µM, a TGI (K-562 leukemia) of 5.82 µM and a GI50 (COLO 205 colon) of 3.39 µM. For the same compound, the TGI (COLO 205 colon) was 15.7 µM, the GI50 (M14 melanoma) was 2.83 µM and the TGI (M14 melanoma) was 14.2 µM. For the same compound, the GI50 (NCI-H226 lung) was 2.36 µM, the TGI (NCI-H226 lung) was 9.9 µM and the GI50 (A549 NSCLC) was 3.44 µM. The TGI (A549 NSCLC) was 56.6 µM, the GI50 (CCRF-CEM leukemia) was 0.505 µM and the TGI (CCRF-CEM leukemia) was 9.71 µM. It also gave a GI50 (BT-549 breast) of 1.06 µM, a TGI (BT-549 breast) of 8.1 µM and a GI50 (RXF 393 renal) of 0.544 µM. The TGI (RXF 393 renal) was 3.11 µM, the GI50 (HL-60(TB) leukemia) was 0.675 µM and the TGI (HL-60(TB) leukemia) was 5.64 µM. For the same compound, the GI50 (HOP-62 NSCLC) was 4.91 µM, the TGI (HOP-62 NSCLC) was 20.8 µM and the GI50 (EKVX NSCLC) was 3.77 µM. For the same compound, the TGI (EKVX NSCLC) was 19.2 µM, the GI50 (SN12C renal) was 3.2 µM and the TGI (SN12C renal) was 12.2 µM. For the same compound, the GI50 (UACC-62 melanoma) was 1.95 µM, the TGI (UACC-62 melanoma) was 8.99 µM and the GI50 (SK-MEL-2 melanoma) was 2.69 µM. For the same compound, the TGI (SK-MEL-2 melanoma) was 7.01 µM, the GI50 (OVCAR-4 ovarian) was 1.12 µM and the TGI (OVCAR-4 ovarian) was 14.2 µM. The GI50 (SR leukemia) was 1.36 µM, the TGI (SR leukemia) was 6.36 µM and the GI50 (OVCAR-3 ovarian) was 3.18 µM. For the same compound, the TGI (OVCAR-3 ovarian) was 13.6 µM, the GI50 (SK-MEL-5 melanoma) was 2 µM and the TGI (SK-MEL-5 melanoma) was 4.21 µM. For the same compound, the GI50 (NCI/ADR-RES ovarian) was 2.87 µM, the TGI (NCI/ADR-RES ovarian) was 18.6 µM and the GI50 (LOX IMVI melanoma) was 1.61 µM. For the same compound, the TGI (LOX IMVI melanoma) was 4.35 µM, the GI50 (IGROV1 ovarian) was 3.55 µM and the TGI (IGROV1 ovarian) was 32 µM. For the same compound, the GI50 (MCF7 breast) was 2.68 µM, the TGI (MCF7 breast) was 43.1 µM and the GI50 (786-0 renal) was 3.81 µM. It also gave a TGI (786-0 renal) of 23 µM, a GI50 (MALME-3M melanoma) of 2.36 µM and a TGI (MALME-3M melanoma) of 6.53 µM. It also gave a GI50 (SW-620 colon) of 1.93 µM, a TGI (SW-620 colon) of 17.4 µM and a GI50 (SF-539 CNS) of 2.39 µM. The TGI (SF-539 CNS) was 6.39 µM.
